21 compounds from patent US12290519B2, “Anti-inflammatory coupling compound drug, and preparation method therefor and use thereof” (COVAL BIOPHARMA (SHANGHAI) CO., LTD., priority 2021, dated 2025) can be followed below.

SMILES strings stand for the structures.

The nature of this data set: Hydrolysis rate / drug release rate of the compounds (release of JAK inhibitor, HPLC). As to conditions: % release of JAK inhibitor from sample in acetonitrile/water=7/3 (v/v), 37° C. constant temperature shaker, sampled days 1-4, HPLC. It is filed as physicochemical. The protocol:
Analysis Method for Hydrolysis Rate of Compounds of the Present Invention
1. Preparation of Standard Working Curve Solution
About 10 mg of JAK inhibitors (tofacitinib and baricitinib) reference substances were weighed into a 25 mL volumetric flask, acetonitrile/water=7/3 (v/v) was added to dissolve and dilute to the marked volume, serving as a stock solution. The stock solution was diluted with a suitable dilution factor to obtain linear solutions of each concentration: 0.0002 mg/mL, 0.0004 mg/mL, 0.004 mg/mL, 0.04 mg/mL, and 0.08 mg/mL.
About 10 mg of JAK inhibitors (Oclacitinib, Ruxolitinib, Delgocitinib, and Upadacitinib) reference substances were weighed into a 25 mL volumetric flask, acetonitrile/water=7/3 (v/v) was added to dissolve and dilute to the marked volume, serving as a stock solution. The stock solution was diluted with a suitable dilution factor to obtain linear solutions of each concentration: 0.0002 mg/mL, 0.0004 mg/mL, 0.004 mg/mL, 0.04 mg/mL, and 0.08 mg/mL.
2. Preparation of Sample Solution
About 5 mg of the sample (the compound prepared in the present invention) was weighed into a 20 mL volumetric flask, acetonitrile/water=7/3 (v/v) was added to dissolve and dilute to the marked volume, serving as a stock solution. An appropriate amount of HPLC was loaded as the 0-day sample. The test solution was sealed with a sealing film and placed in a 37° C. constant temperature shaker. The test samples were taken at the same time on days 1, 2, 3, and 4 respectively. the release amount of JAK inhibitor in the sample was calculated according to the sample weight and JAK inhibitor standard curve.
3. Calculation Formula % Release of JAK Inhibitor r=100%×((AJAK Inhibitor−b)/a)/((W/20×M2/M1) wherein • AJAK inhibitor is the peak area of JAK inhibitor in the sample chromatogram • b is the intercept of the standard curve M1 is the molecular weight of the sample a is the slope of the standard curve
W is the sample weight (mg) M2 is the molecular weight of the JAK inhibitor
4. Chromatographic Conditions

For `CCc1cccc2c3c([nH]c12)C(CC)(CC(=O)n1ccc2c(-c4cnn([C@H](CC#N)C5CCCC5)c4)ncnc21)OCC3` (stereo partly drawn) [Ex. 45, (3R)-3-cyclopentyl-3-(4-(7-(2-(1,8-diethyl-1,3,4,9-tetrahydropyran [3,4-b]indol-1-yl)acetyl)-7H-pyrrolo [2,3-d]pyrimidin-4-yl)-1H-pyrazol-1-yl) propanenitrile], the “Release Rate (%/day)” value worked out at 1.93 %/day.
Take `CNS(=O)(=O)C[C@H]1CC[C@H](N(C)c2ncnc3c2ccn3C(=O)[C@@H](NC(=O)OC(C)(C)C)c2ccccc2)CC1` [Ex. 46, tert-butyl ((S)-2-(4-(methyl ((trans)-4-((N-methylsulfamoyl)methyl)cyclohexyl)amino)-7H-pyrrolo [2,3-d]pyrimidin-7-yl)-2-oxo-1-phenylethyl) carbamate]: the “Release Rate (%/day)” value is 25.52 %/day.
Next, `CCS(=O)(=O)N1CC(CC#N)(n2cc(-c3ncnc4c3ccn4C(=O)c3ccccc3Nc3cccc(C)c3C)cn2)C1` [Ex. 47, 2-(3-(4-(7-(2-((2,3-Dimethylphenyl)amino)benzoyl)-7H-pyrrolo [2,3-d]pyrimidin-4-yl)-1H-pyrazol-1-yl)-1-(ethylsulfonyl)azetidin-3-yl) acetonitrile]: 0.36 %/day.
Consider `COc1ccc2cc([C@H](C)C(=O)OCn3ccc4c(N(C)[C@H]5CN(C(=O)CC#N)CC[C@H]5C)ncnc43)ccc2c1` [Ex. 48, 4-(((3R, 4R)-1-(2-cyanoacetyl)-4-methylpiperidin-3-yl) (methyl)amino)-7H-pyrrolo [2,3-d] pyrimidin-7-yl) methyl (S)-2-(6-methoxynaphthalen-2-yl) propanoate], for which the “Release Rate (%/day)” value was found to be 0.03 %/day.
Consider `CC(C(=O)OCn1ccc2c(N(C)[C@H]3CN(C(=O)CC#N)CC[C@H]3C)ncnc21)c1cccc(C(=O)c2ccccc2)c1` (stereo partly drawn) [Ex. 49, (4-(((3R, 4R)-1-(2-cyanoacetyl)-4-methylpiperidin-3-yl) (methyl)amino)-7H-pyrrolo [2,3-d]pyrimidin-7-yl) methyl 2-(3-benzoylphenyl) propanoate], for which the “Release Rate (%/day)” value was determined as 0.11 %/day.
For `CC(C(=O)OCn1ccc2c(N(C)[C@H]3CN(C(=O)CC#N)CC[C@H]3C)ncnc21)c1ccc(-c2ccccc2)c(F)c1` (stereo partly drawn) [Ex. 50, (4-(((3R, 4R)-1-(2-cyanoacetyl)-4-methylpiperidin-3-yl) (methyl)amino)-7H-pyrrolo [2,3-d]pyrimidin-7-yl) methyl 2-(2-fluoro-[1, 1′-biphenyl]-4-yl) propanoate], the “Release Rate (%/day)” value is on record as 0.05 %/day.
`C[C@@H]1CCN(C(=O)CC#N)C[C@@H]1N(C)c1ncnc2c1ccn2COC(=O)Cc1ccccc1Nc1c(Cl)cccc1Cl` [Ex. 51, (4-(((3R, 4R)-1-(2-cyanoacetyl)-4-methylpiperidin-3-yl) (methyl)amino)-7H-pyrrolo [2,3-d]pyrimidin-7-yl) methyl 2-(2-((2,6-dichlorophenyl)amino)phenyl) acetate]: the “Release Rate (%/day)” value amounted to 0.35 %/day.
Next, `CC(C(=O)OCn1ccc2c(N(C)[C@H]3CN(C(=O)CC#N)CC[C@H]3C)ncnc21)c1cccc(Oc2ccccc2)c1` (stereo partly drawn) [Ex. 52, (4-(((3R, 4R)-1-(2-cyanoacetyl)-4-methylpiperidin-3-yl) (methyl)amino)-7H-pyrrolo [2,3-d]pyrimidin-7-yl) methyl 2-(3-phenoxyphenyl) propanoate]: 0.1 %/day.
Next, `CC(C(=O)OCn1ccc2c(N(C)[C@H]3CN(C(=O)CC#N)CC[C@H]3C)ncnc21)c1ccc(CC2CCCC2=O)cc1` (stereo partly drawn) [Ex. 53, (4-(((3R, 4R)-1-(2-cyanoacetyl)-4-methylpiperidin-3-yl) (methyl)amino)-7H-pyrrolo [2,3-d]pyrimidin-7-yl) methyl 2-(4-((2-oxocyclopentyl)methyl)phenyl) propanoate]: 0.06 %/day; `CC(C(=O)n1ccc2c(-c3cnn([C@H](CC#N)C4CCCC4)c3)ncnc21)c1cccc(Oc2ccccc2)c1` (stereo partly drawn) [Ex. 54, (3R)-3-cyclopentyl-3-(4-(7-(2-(3-phenoxyphenyl)propanoyl)-7H-pyrrolo [2,3-d]pyrimidin-4-yl)-1H-pyrazol-1-yl) propanenitrile]: 4.93 %/day; `COc1ccc2c(c1)c(CC(=O)OCn1ccc3c(N(C)[C@H]4CN(C(=O)CC#N)CC[C@H]4C)ncnc31)c(C)n2C(=O)c1ccc(Cl)cc1` [Ex. 55, (4-(((3R, 4R)-1-(2-cyanoacetyl)-4-methylpiperidin-3-yl) (methyl)amino)-7H-pyrrolo [2,3-d]pyrimidin-7-yl) methyl 2-(1-(4-chlorobenzoyl)-5-methoxy-2-methyl-1H-indol-3-yl) acetate]: 0.16 %/day.
Regarding `CC(=O)Oc1ccccc1C(=O)OCn1ccc2c(N(C)[C@H]3CN(C(=O)CC#N)CC[C@H]3C)ncnc21` [Ex. 56, (4-(((3R, 4R)-1-(2-cyanoacetyl)-4-methylpiperidin-3-yl) (methyl)amino)-7H-pyrrolo [2,3-d]pyrimidin-7-yl) methyl 2-acetoxybenzoate], the “Release Rate (%/day)” value worked out at 0.07 %/day.
Take `Cc1c(Cl)cccc1Nc1ccccc1C(=O)n1ccc2c(-c3cnn([C@H](CC#N)C4CCCC4)c3)ncnc21` [Ex. 57, (R)-3-(4-(7-(2-((3-chloro-2-methylphenyl)amino)benzoyl)-7H-pyrrolo [2,3-d]pyrimidin-4-yl)-1H-pyrazol-1-yl)-3-cyclopentylpropanenitrile]: the “Release Rate (%/day)” value came to 0.57 %/day.
For `CNS(=O)(=O)C[C@H]1CC[C@H](N(C)c2ncnc3c2ccn3C(=O)Cc2ccc(NC(C)=O)cc2)CC1` [Ex. 58, N-(4-(2-(4-(methyl ((trans)-4-((N-methylsulfamoyl)methyl)cyclohexyl)amino)-7H-pyrrolo [2,3-d]pyrimidin-7-yl)-2-oxoethyl)phenyl) acetamide], the “Release Rate (%/day)” value is reported as 12.46 %/day.
The result for `CC(=O)Nc1ccc(CC(=O)OCn2ccc3c(N(C)[C@H]4CN(C(=O)CC#N)CC[C@H]4C)ncnc32)cc1` [Ex. 59, (4-(((3R, 4R)-1-(2-cyanoacetyl)-4-methylpiperidin-3-yl) (methyl)amino)-7H-pyrrolo [2,3-d]pyrimidin-7-yl) methyl 2-(4-acetamidophenyl) acetate] reads 0.15 %/day.
Next, `CCS(=O)(=O)N1CC(CC#N)(n2cc(-c3ncnc4c3ccn4COC(=O)[C@@H](C)c3ccc(CC(C)C)cc3)cn2)C1` [Ex. 60, Methyl (4-(1-(3-(cyanomethyl)-1-(ethylsulfonyl)azetidin-3-yl)-1H-pyrazol-4-yl)-7H-pyrrolo [2,3-d]pyrimidin-7-yl) (S)-2-(4-isobutylphenyl) propanoate]: under 0.01 %/day; `CCS(=O)(=O)N1CC(CC#N)(n2cc(-c3ncnc4c3ccn4COC(=O)[C@@H](C)c3ccc4cc(OC)ccc4c3)cn2)C1` [Ex. 61, Methyl (4-(1-(3-(cyanomethyl)-1-(ethylsulfonyl)azetidin-3-yl)-1H-pyrazol-4-yl)-7H-pyrrolo [2,3-d]pyrimidin-7-yl) (S)-2-(6-methoxynaphthalen-2-yl) propanoate]: under 0.01 %/day.
Regarding `CCS(=O)(=O)N1CC(CC#N)(n2cc(-c3ncnc4c3ccn4COC(=O)C(C)c3cccc(C(=O)c4ccccc4)c3)cn2)C1` (stereo not drawn) [Ex. 62, 4-(1-(3-(cyanomethyl)-1-(ethylsulfonyl)azetidin-3-yl)-1H-pyrazol-4-yl)-7H-pyrrolo [2,3-d] pyrimidin-7-yl) methyl 2-(3-benzoylphenyl) propanoate], the “Release Rate (%/day)” value is reported as 0.01 %/day.
The result for `CCc1cccc2c3c([nH]c12)C(CC)(CC(=O)OCn1ccc2c(N(C)[C@H]4CN(C(=O)CC#N)CC[C@H]4C)ncnc21)OCC3` (stereo partly drawn) [Ex. 63, (4-(((3R, 4R)-1-(2-cyanoacetyl)-4-methylpiperidin-3-yl) (methyl)amino)-7H-pyrrolo [2,3-d]pyrimidin-7-yl) methyl 2-(1,8-diethyl-1,3,4,9-tetrahydropyrano [3,4-b]indol-1-yl) acetate] reads 0.02 %/day; that for `C[C@@H]1CCN(C(=O)CC#N)C[C@@H]1N(C)c1ncnc2c1ccn2COC(=O)[C@@H](NC(=O)OC(C)(C)C)c1ccccc1` [Ex. 64, (4-(((3R, 4R)-1-(2-cyanoacetyl)-4-methylpiperidin-3-yl) (methyl)amino)-7H-pyrrolo [2,3-d]pyrimidin-7-yl) methyl (S)-2-((tert-butoxycarbonyl)amino)-2-phenylacetate], 0.88 %/day.
Next, `CCC(C(=O)OCn1ccc2c(N(C)[C@H]3CN(C(=O)CC#N)CC[C@H]3C)ncnc21)c1ccc(N2Cc3ccccc3C2=O)cc1` (stereo partly drawn) [Ex. 65, (4-(((3R, 4R)-1-(2-cyanoacetyl)-4-methylpiperidin-3-yl) (methyl)amino)-7H-pyrrolo [2,3-d]pyrimidin-7-yl) methyl 2-(4-(1-oxoisoindol-2-yl)) phenyl) butanoate]: 0.01 %/day.
